The test system of assay [1] is MIF. Details: method as in PMID 34153665, PMID 33823428. To be noted: cited from earlier work.
In assay [2] the target is T1, MIF (Homo sapiens, UniProt P14174).
T1 construct: purchased Abcam ab51096
T1 sequence (P14174 2-115 limits assumed): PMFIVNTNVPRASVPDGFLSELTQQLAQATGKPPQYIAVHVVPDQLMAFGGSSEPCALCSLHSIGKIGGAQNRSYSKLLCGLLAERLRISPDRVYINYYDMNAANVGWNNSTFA
The assay can be described thus: MST assay, binding affinity to MIF. To be noted: mean ± SD. The method, then: (§1) All chemicals were purchased from commercial suppliers without additional purification required. […] The high-performance liquid chromatography (HPLC) spectra data for each compound were provided in the Supplementary Materials (Figures S2.1–2.6). RAW 264.7 murine macrophages were purchased from the American Type Culture Collection (ATCC, TIB-71). 10% foetal bovine serum (FBS), 100 units/mL of penicillin, and 100 µg/mL of streptomycin were added to the Dulbecco’s modified Eagle’s medium (DMEM). The FBS, penicillin, streptomycin, and DMEM were purchased from Gibco (Grand Island, NY, USA). The cells were cultured in the incubator that was humidified with 5% CO2 and 95% air at 37 °C. The human recombinant MIF was purchased from Abcam (Cambridge, MA, USA) and catalogue number was ab51096.
The MST assay was used to measure the Kd value, aiming to assess the binding affinity between small molecules and targeted proteins in the field of drug discovery. […] The degree of labelling (DOL) of the MIF protein was calculated. The ideal DOL was in the range of 0.5–1. The Monolith™ RED-NHS second-generation protein labelling kit (NanoTemper Technologies) was used for the fluorescent labelling of MIF protein. We strictly followed the instructions of the kit for the experiment. The PBST (Phosphate-Buffered Saline with Tween) solution containing 0.05% Tween 20 was configured. The ligand was diluted into 16 concentration gradients using the semi-dilution method. The fluorescently labelled protein was added and thoroughly mixed, then incubated for 5 min in the dark. The solution was taken by capillary tube and assayed with the Monolith NT.115 instrument (NanoTemper Technologies). Subsequently, the difference was recorded in fluorescence intensity. The fluorescence intensity was plotted against the concentration of the hit compounds to generate a fluorescence dose curve, following which the Kd value was calculated.

Assay [3] deals with T1, MIF. In words: ITC assay, binding affinity to MIF. As to conditions: 25 °C, pH 7.5, mean ± SD. The method, then: as §1
A general note: ITC needs no label: the signal is the heat of the interaction.

The next assay deals with T2, MIF-CD74 binding (Homo sapiens, UniProt P14174).
T2 sequence (P14174 1-115): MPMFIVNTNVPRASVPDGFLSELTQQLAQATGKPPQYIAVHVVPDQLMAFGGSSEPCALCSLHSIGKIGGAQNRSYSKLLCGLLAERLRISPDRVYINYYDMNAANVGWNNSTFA
In words: Pull down assay of GST-MIF with CD74. As to conditions: 40 nM biotin-Hit-1; 100 nM and 200 nM CD74; western blot. The method, then: The pull down experiment was executed as described previously[36] and in line with defined standard principles. The pre-washed beads with purified GST-MIF were incubated for 2 h at 4 °C. The sample was centrifuged at 10 000 rpm and the purified protein was transferred to a new Eppendorf (EP) tube to remove non-specifically bound background proteins. The 40 nM of biotin-Hit-1 was added to the purified protein for incubation. […] The beads were washed five times with PBST. The proteins were denatured at 100 °C for 5 min. The protein bands were isolated and segregated via sodium dodecyl sulphate-polyacrylamide gel electrophoresis (SDS-PAGE) technique. The polyvinylidene fluoride (PVDF) membrane was pre-soaked in methanol. The protein bands were transferred onto the PVDF membrane under the condition of 200 mA. The membrane was blocked by incubating it with 3% bovine serum albumin (BSA) in PBS at 37 °C for 2 h. After every incubation period ended, the membrane was washed three times successively with PBST, with each washing step taking 10 min. Subsequently, the membrane was subjected to incubating with the primary antibody on a shaker overnight at 4 °C. […] Thereafter, the light signal was detected by a sophisticated detection system. Employing the Image J software, the intensity of the bands was quantified.

The subject of the next assay is RAW 264.7 macrophages. The assay can be described thus: RT-qPCR of LPS-induced proinflammatory gene expression. It counts as cell-based, murine. To be noted: mRNA, LPS 200 ng/mL 6 h, then 300 nM compound 30 min. From the text:
All chemicals were purchased from commercial suppliers without additional purification required. […] Hits 1–6 compounds were obtained from WuXi AppTec (Shanghai, China) with a purity exceeding 98%. The high-performance liquid chromatography (HPLC) spectra data for each compound were provided in the Supplementary Materials (Figures S2.1–2.6). RAW 264.7 murine macrophages were purchased from the American Type Culture Collection (ATCC, TIB-71). 10% foetal bovine serum (FBS), 100 units/mL of penicillin, and 100 µg/mL of streptomycin were added to the Dulbecco’s modified Eagle’s medium (DMEM). The FBS, penicillin, streptomycin, and DMEM were purchased from Gibco (Grand Island, NY, USA). The cells were cultured in the incubator that was humidified with 5% CO2 and 95% air at 37 °C. The human recombinant MIF was purchased from Abcam (Cambridge, MA, USA) and catalogue number was ab51096. This experiment was carried out in accordance with the relevant literature. […] RAW 264.7 macrophages were subjected to treatment with LPS at a concentration of 200 ng/mL for 6 h. […] The Trizol method was used to extract the total ribonucleic acid (RNA) from the cells. The RNA reverse transcription kit (Invitrogen) was used to synthesise complementary deoxyribonucleic acid (cDNA) according to the manufacturer’s instructions. The SYRB Green qPCR kit and the primers were used for amplification. Thereafter, to standardise the data, the expression levels of the target genes were normalised to GAPDH and calculated by using the 2^−ΔΔCT method. The expression data were presented in the format of fold-change for clear visualisation.
A general note: Quantitative PCR measures a nucleic acid by following its amplification.

The text below walks through data of paper PMC12172083, “Identification of a novel and high affinity MIF inhibitor via structure-based pharmacophore modelling, molecular docking, molecular dynamics simulations, and biological evaluation” (Journal of Enzyme Inhibition and Medicinal Chemistry, 2025).

Take `COC(=O)CC1CC(c2ccc(O)cc2)=NO1` (centres unmarked) [ISO-1]: in the assay with MIF [1], the “Release of pro-inflammatory factors induced by LPS (TNF-α, IL-6, IL-1β)” value is “suppress the release”.
A word on the Kd: it is the free concentration of one partner at which half of the binding sites on the other are occupied at equilibrium, for simple one-to-one binding. A lower Kd goes with a tighter complex. Compound `c1ccc(-c2cc(-c3cn4cccnc4n3)on2)cc1` [Hit-3] gave a dissociation constant Kd on MIF [2] of 540 ± 20 nM.
At MIF [2], `Cc1nn(-c2ccccc2)nc1-c1nnc(-c2ccccc2)o1` [Hit-5] came in with a dissociation constant Kd of 810 ± 40 nM.
The same measure, in the same setting: the result for `Cc1ccn2cc(-c3cc(-c4ccccc4)no3)nc2c1` [Hit-2] reads 460 ± 30 nM; that for `Cc1nn(-c2ccccc2)nc1-c1nnc(-c2ccc(Cl)cc2)o1` [Hit-4], 750 ± 60 nM.
Take `CCc1ccn2cc(-c3cc(-c4ccccc4)no3)nc2c1` [Hit-1]: binding at MIF [2] was put at a Kd of 290 ± 10 nM. In addition, the Kd at MIF [3] was determined as 320 ± 10 nM. Also, on MIF-CD74 binding, the “Effect on MIF interaction with CD74” value is recorded as “potently suppressed”. Besides, the “Reduction of TNF-α level compared with the LPS group” value in the assay with RAW 264.7 macrophages came out at 3.7 fold. Also, in the assay on RAW 264.7 macrophages (compared with compound 3a), the “Inhibitory effect on the IL-1β” value is listed as “distinctly stronger inhibitory effect” and the “Inhibitory effect on the IL-6 level” value is reported as “markedly stronger inhibitory effect”.
`Oc1ccc(-n2cc(-c3ccc4ccccc4n3)nn2)cc1` [Hit 3a, reference compound]: in the assay with RAW 264.7 macrophages, the “Reduction of TNF-α level compared with the LPS group” value was 2.2 fold.
For `COc1ccc(-c2cc(C)nc(SCc3cccc(C(=O)O)c3)n2)cc1` [Hit Z-312, 3-({[4-(4-methoxyphenyl)-6-methyl-2-pyrimidinyl]thio}1methyl)benzoic acid], the “Release of pro-inflammatory factors induced by LPS (TNF-α, IL-6, IL-1β)” value in the assay on MIF [1] is on record as “suppress the release”.
For the compound `Cc1nn(-c2ccccc2)nc1-c1nnc(-c2ccc(C(F)(F)F)cc2)o1` [Hit-6], on MIF [2], the equilibrium dissociation constant (Kd) came to 720 ± 50 nM.
